Assay results reported in patent publication US20250034105A1, “IS[…] N-METHYL-1,3-BENZODIOXOLYLBUTANAMINE (MBDB) AND STEREOISOMERS THEREOF” (Terran Biosciences Inc., priority 2021, published 2025).

Experiment: Metabolic stability in human liver microsomes
Assay type: in vitro ADME
Conditions: for CLint / t1/2: NADPH; for CLint / t1/2 / half-life at 0.25 μM / microsomal CLint at 0.25 μM: 37° C.; for differences in half-life and intrinsic clearance compared to R-MBDB HCl salt (reference compound) / differences in half-life and intrinsic clearance compared to rac-MBDB HCl salt (reference compound) / differences in half-life and intrinsic clearance compared to S-MBDB HCl salt (reference compound): based on Table Ex7; for half-life at 0.25 μM / microsomal CLint at 0.25 μM: pH 7.4, NADPH
Experimental: Microsomal Assay: Human liver microsomes (20 mg/mL) were obtained. β-nicotinamide adenine dinucleotide phosphate, reduced form (NADPH), magnesium chloride (MgCl2), and dimethyl sulfoxide (DMSO) were purchased from Sigma-Aldrich. Determination of Metabolic Stability: 7.5 mM stock solutions of test compounds of the above structural formula (e.g., of an embodiment or aspect of embodiment thereof described herein), or pharmaceutically acceptable salt thereof, are prepared in DMSO. […] The diluted microsomes were added to wells of a 96-well deep-well polypropylene plate in triplicate. […] Reactions were initiated by addition of pre-warmed NADPH solution. The final reaction volume is 0.5 mL and contains 4.0 mg/mL human liver microsomes, 0.25 μM test compound, and 2 mM NADPH in 0.1 M potassium phosphate buffer, pH 7.4, and 3 mM MgCl2. The reaction mixtures were incubated at 37° C., and 50 pL aliquots were removed at 0, 5, 10, 20, and 30 minutes and added to shallow-well 96-well plates which contain 50 pL of ice-cold ACN (acetonitrile) with internal standard to stop the reactions. The plates were stored at 4° C. for 20 minutes after which 100 pL of water was added to the wells of the plate before centrifugation to pellet precipitated proteins. Supernatants were transferred to another 96-well plate and analyzed for amounts of parent remaining by LC-MS/MS using an Applied Bio-systems API 4000 mass spectrometer. The same procedure was followed for the non-enriched counterpart of the compound and the positive control, 7-ethoxycoumarin (1 μM). Testing was done in triplicate.
Data analysis: The in vitro T1/2s for test compounds were calculated from the slopes of the linear regression of % parent remaining (In) vs incubation time relationship.
k=−[slope of linear regression of % parent remaining (In) vs incubation time] The apparent intrinsic clearance was calculated using the following equation: […]

Structure (SMILES) | CLint [μL/min/mg protein] | t1/2 [min] | differences in half-life and intrinsic clearance compared to R-MBDB HCl salt (reference compound) | half-life at 0.25 μM [min] | microsomal CLint at 0.25 μM [µL/min/mg] | differences in half-life and intrinsic clearance compared to rac-MBDB HCl salt (reference compound) | differences in half-life and intrinsic clearance compared to S-MBDB HCl salt (reference compound)
CCC(Cc1ccc2c(c1)OCO2)NC.Cl (racemic) [rac-MBDB HCl salt] | 11.9 | 116 |  |  |  |  | 
Cl.[2H]C([2H])([2H])N[C@H](CC)Cc1ccc2c(c1)OC([2H])([2H])O2 [Compound 5, (2R)-1-(2,2-Dideuterio-1,3-benzodioxol-5-yl)-N-(trideuteriomethyl)butan-2-amine hydrochloride] |  |  | significant differences | 24.3 | 57.1 |  | 
CC[C@H](Cc1ccc2c(c1)OCO2)NC.Cl [R-MBDB HCl salt] | 11.7 | 119 |  |  |  |  | 
Cl.[2H]C1([2H])Oc2ccc(CC(CC)NC)cc2O1 (racemic) [Compound 8, 1-(2,2-Dideuterio-1,3-benzodioxol-5-yl)-N-methyl-butan-2-amine hydrochloride] |  |  |  | 80.6 | 17.2 | significant differences | 
Cl.[2H]C([2H])([2H])NC(CC)Cc1ccc2c(c1)OCO2 (racemic) [Compound 2, 1-(1,3-Benzodioxol-5-yl)-N-(trideuteriomethyl)butan-2-amine hydrochloride] |  |  |  | 112 | 12.4 | demonstrates differences | 
Cl.[2H]C([2H])([2H])N[C@@H](CC)Cc1ccc2c(c1)OC([2H])([2H])O2 [Compound 6, (2S)-1-(2,2-Dideuterio-1,3-benzodioxol-5-yl)-N-(trideuteriomethyl)butan-2-amine hydrochloride] |  |  |  | 54.6 | 25.4 |  | significant differences
Cl.[2H]C1([2H])Oc2ccc(C[C@@H](CC)NC)cc2O1 [Compound 7, (2R)-1-(2,2-Dideuterio-1,3-benzodioxol-5-yl)-N-methyl-butan-2-amine hydrochloride] |  |  | significant differences | 37.7 | 36.7 |  | 
Cl.[2H]C1([2H])Oc2ccc(C[C@H](CC)NC)cc2O1 [Compound 9, (2S)-1-(2,2-Dideuterio-1,3-benzodioxol-5-yl)-N-methyl-butan-2-amine hydrochloride] |  |  |  | 52 | 26.7 |  | significant differences
Cl.[2H]C([2H])([2H])N[C@@H](CC)Cc1ccc2c(c1)OCO2 [Compound 3, (2S)-1-(1,3-Benzodioxol-5-yl)-N-(trideuteriomethyl)butan-2-amine hydrochloride] |  |  |  | 173 | 8.04 |  | demonstrates differences
COc1ccc2c(c1)[C@]13CCCC[C@@H]1[C@H](C2)N(C)CC3 [dextromethorphan] | 53.4 |  |  |  |  |  | 
Cl.[2H]C([2H])([2H])NC(CC)Cc1ccc2c(c1)OC([2H])([2H])O2 (racemic) [Compound 4, 1-(2,2-Dideuterio-1,3-benzodioxol-5-yl)-N-(trideuteriomethyl)butan-2-amine hydrochloride] |  |  |  | 42 | 33 | significant differences | 
Cl.[2H]C([2H])([2H])N[C@H](CC)Cc1ccc2c(c1)OCO2 [Compound 1, (2R)-1-(1,3-Benzodioxol-5-yl)-N-(trideuteriomethyl)butan-2-amine hydrochloride] |  |  | significant differences | 96.8 | 14.3 |  | 
CC[C@@H](Cc1ccc2c(c1)OCO2)NC.Cl [S-MBDB HCl salt] | 8.06 | 172 |  |  |  |  | 
